{"source": "patent US8959984B2", "about": "“Proteome-wide quantification of small molecule binding to cellular target proteins” (priority 2007, dated 2015)", "experiment_in_all_cases": "binding to VI16742 beads (HeLa lysate, SILAC MS)", "key": {"CDK6 (IPI00023529)": {"target": "T1, CDK6 (IPI00023529) (Homo sapiens, UniProt Q00534)", "T1 construct": "endogenous in cells; host or cells: HeLa S3", "T1 sequence (Q00534 whole entry)": "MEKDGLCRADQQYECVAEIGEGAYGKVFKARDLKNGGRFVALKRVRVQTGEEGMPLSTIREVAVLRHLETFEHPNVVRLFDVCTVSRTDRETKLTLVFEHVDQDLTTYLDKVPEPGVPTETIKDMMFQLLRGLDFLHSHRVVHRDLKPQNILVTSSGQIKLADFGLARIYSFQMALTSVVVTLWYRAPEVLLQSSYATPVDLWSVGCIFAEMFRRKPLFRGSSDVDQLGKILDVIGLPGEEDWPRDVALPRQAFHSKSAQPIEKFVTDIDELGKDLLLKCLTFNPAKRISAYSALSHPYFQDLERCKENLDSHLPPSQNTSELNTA", "in_short": "(§1)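 Affinity capture: immobilised pyrido[2,3-d]pyrimidine kinase inhibitor, broad selectivity. Specific retention on the resin counted as binding.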"}, "DAPK2 (IPI00033388)": {"target": "T2, DAPK2 (IPI00033388) (Homo sapiens, UniProt Q9UIK4)", "T2 construct": "endogenous in cells; host or cells: HeLa S3", "T2 sequence (Q9UIK4 whole entry)": "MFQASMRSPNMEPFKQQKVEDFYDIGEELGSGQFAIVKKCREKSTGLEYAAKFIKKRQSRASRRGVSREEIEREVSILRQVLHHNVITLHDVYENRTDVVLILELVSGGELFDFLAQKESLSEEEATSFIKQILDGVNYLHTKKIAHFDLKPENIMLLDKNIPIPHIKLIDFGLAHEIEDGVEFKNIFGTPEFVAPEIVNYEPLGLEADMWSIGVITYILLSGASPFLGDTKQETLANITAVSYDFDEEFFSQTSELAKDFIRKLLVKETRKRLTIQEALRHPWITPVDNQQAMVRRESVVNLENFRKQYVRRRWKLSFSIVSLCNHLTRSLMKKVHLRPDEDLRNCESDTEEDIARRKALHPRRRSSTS", "in_short": "as §1"}, "RPSA (IPI00413108)": {"target": "T3, RPSA (IPI00413108) (Homo sapiens, UniProt P08865)", "T3 construct": "endogenous in cells; host or cells: HeLa S3", "in_short": "as §1"}, "APRT (IPI00218693)": {"target": "T4, APRT (IPI00218693) (Homo sapiens, UniProt P07741)", "T4 construct": "endogenous in cells; host or cells: HeLa S3", "T4 sequence (P07741 1-180)": "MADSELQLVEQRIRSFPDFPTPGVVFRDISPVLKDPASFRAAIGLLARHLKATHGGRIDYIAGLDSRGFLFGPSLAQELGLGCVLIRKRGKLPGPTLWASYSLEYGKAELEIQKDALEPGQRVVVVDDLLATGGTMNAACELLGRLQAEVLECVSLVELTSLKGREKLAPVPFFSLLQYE", "in_short": "as §1"}, "SLK (IPI00022827)": {"target": "T5, SLK (IPI00022827) (Homo sapiens, UniProt Q9H2G2)", "T5 construct": "endogenous in cells; host or cells: HeLa S3", "T5 sequence (Q9H2G2 whole entry)": "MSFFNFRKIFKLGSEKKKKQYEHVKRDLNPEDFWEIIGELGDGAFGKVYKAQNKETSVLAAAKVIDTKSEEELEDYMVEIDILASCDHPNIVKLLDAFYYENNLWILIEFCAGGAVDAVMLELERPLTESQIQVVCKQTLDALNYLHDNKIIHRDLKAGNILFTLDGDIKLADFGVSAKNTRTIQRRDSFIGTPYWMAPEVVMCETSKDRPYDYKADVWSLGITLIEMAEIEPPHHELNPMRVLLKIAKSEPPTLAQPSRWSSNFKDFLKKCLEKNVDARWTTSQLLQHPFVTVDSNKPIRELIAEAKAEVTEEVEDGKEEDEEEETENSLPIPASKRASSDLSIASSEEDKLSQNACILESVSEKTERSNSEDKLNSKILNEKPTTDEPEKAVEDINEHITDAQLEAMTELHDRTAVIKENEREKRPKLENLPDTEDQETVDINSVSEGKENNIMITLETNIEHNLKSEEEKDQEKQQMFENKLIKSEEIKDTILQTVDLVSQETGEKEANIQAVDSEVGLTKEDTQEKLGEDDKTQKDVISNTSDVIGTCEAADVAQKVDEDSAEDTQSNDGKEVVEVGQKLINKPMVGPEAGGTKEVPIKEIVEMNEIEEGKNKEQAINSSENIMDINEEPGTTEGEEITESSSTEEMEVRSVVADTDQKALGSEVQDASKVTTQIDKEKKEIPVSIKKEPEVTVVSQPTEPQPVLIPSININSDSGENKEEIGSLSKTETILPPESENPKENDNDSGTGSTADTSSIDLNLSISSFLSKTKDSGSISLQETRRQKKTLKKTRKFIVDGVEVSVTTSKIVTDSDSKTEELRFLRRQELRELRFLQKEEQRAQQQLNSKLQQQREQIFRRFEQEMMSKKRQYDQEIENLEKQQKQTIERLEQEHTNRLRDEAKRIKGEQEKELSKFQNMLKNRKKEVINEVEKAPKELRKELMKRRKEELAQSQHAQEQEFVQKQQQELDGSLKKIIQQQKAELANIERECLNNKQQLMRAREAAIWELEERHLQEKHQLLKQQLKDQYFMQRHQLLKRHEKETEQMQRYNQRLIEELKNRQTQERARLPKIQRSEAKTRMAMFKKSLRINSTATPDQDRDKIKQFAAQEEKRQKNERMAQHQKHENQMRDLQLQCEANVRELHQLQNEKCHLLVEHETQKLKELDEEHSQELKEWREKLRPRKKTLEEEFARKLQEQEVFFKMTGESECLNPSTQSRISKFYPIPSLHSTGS", "in_short": "as §1"}, "MAP2K4 (IPI00789335)": {"target": "T6, MAP2K4 (IPI00789335) (Homo sapiens, UniProt P45985)", "T6 construct": "endogenous in cells; host or cells: HeLa S3", "T6 sequence (P45985 1-399)": "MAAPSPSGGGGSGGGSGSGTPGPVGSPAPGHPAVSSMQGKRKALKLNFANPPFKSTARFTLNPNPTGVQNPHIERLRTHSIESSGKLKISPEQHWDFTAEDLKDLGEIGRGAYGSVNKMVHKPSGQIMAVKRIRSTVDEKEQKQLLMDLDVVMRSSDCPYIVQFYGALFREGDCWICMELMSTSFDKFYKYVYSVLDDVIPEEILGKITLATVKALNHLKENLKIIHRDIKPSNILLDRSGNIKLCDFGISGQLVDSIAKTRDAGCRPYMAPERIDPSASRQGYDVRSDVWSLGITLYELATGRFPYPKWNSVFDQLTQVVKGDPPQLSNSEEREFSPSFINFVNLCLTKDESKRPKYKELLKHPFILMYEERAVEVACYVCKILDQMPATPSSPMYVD", "in_short": "as §1"}, "[1]": {"target": "T7, IKKb (IKBKB, IPI00024709) (Homo sapiens, UniProt O14920)", "T7 construct": "endogenous in cells; host or cells: HeLa S3", "T7 sequence (O14920 1-756)": "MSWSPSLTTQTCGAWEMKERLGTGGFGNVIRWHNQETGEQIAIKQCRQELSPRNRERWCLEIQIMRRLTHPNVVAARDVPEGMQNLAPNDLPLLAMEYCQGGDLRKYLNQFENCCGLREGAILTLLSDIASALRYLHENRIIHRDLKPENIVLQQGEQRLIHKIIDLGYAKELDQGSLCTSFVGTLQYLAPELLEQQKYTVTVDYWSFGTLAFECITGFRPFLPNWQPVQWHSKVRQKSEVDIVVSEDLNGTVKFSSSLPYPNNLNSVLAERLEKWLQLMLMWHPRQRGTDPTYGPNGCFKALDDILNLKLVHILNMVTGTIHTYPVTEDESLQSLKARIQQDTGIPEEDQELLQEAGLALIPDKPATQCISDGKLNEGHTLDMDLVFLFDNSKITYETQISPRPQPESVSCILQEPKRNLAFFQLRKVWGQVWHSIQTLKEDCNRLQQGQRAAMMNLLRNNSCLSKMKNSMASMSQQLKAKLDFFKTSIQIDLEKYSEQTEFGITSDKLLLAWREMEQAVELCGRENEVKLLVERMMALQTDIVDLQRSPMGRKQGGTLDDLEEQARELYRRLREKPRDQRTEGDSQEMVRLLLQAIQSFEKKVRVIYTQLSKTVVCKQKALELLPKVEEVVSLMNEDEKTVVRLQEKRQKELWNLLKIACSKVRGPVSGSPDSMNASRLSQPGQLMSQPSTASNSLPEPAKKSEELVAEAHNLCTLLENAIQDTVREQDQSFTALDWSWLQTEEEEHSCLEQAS", "in_short": "as §1"}, "XTP3TPA (IPI00012197)": {"target": "T8, XTP3TPA (IPI00012197) (Homo sapiens, UniProt Q9H773)", "T8 construct": "endogenous in cells; host or cells: HeLa S3", "T8 sequence (Q9H773 1-170)": "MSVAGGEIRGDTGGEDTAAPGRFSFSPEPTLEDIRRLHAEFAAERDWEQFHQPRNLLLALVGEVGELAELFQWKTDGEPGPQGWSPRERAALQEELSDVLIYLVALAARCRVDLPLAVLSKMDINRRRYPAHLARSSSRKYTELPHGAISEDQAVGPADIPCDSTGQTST", "in_short": "as §1"}, "[2]": {"target": "T9, PKACb (PRKACB, IPI00376119) (Homo sapiens, UniProt P22694)", "T9 construct": "endogenous in cells; host or cells: HeLa S3", "in_short": "as §1"}, "PIK3C2A (IPI00002580)": {"target": "T10, PIK3C2A (IPI00002580) (Homo sapiens, UniProt O00443)", "T10 construct": "endogenous in cells; host or cells: HeLa S3", "T10 sequence (O00443 whole entry)": "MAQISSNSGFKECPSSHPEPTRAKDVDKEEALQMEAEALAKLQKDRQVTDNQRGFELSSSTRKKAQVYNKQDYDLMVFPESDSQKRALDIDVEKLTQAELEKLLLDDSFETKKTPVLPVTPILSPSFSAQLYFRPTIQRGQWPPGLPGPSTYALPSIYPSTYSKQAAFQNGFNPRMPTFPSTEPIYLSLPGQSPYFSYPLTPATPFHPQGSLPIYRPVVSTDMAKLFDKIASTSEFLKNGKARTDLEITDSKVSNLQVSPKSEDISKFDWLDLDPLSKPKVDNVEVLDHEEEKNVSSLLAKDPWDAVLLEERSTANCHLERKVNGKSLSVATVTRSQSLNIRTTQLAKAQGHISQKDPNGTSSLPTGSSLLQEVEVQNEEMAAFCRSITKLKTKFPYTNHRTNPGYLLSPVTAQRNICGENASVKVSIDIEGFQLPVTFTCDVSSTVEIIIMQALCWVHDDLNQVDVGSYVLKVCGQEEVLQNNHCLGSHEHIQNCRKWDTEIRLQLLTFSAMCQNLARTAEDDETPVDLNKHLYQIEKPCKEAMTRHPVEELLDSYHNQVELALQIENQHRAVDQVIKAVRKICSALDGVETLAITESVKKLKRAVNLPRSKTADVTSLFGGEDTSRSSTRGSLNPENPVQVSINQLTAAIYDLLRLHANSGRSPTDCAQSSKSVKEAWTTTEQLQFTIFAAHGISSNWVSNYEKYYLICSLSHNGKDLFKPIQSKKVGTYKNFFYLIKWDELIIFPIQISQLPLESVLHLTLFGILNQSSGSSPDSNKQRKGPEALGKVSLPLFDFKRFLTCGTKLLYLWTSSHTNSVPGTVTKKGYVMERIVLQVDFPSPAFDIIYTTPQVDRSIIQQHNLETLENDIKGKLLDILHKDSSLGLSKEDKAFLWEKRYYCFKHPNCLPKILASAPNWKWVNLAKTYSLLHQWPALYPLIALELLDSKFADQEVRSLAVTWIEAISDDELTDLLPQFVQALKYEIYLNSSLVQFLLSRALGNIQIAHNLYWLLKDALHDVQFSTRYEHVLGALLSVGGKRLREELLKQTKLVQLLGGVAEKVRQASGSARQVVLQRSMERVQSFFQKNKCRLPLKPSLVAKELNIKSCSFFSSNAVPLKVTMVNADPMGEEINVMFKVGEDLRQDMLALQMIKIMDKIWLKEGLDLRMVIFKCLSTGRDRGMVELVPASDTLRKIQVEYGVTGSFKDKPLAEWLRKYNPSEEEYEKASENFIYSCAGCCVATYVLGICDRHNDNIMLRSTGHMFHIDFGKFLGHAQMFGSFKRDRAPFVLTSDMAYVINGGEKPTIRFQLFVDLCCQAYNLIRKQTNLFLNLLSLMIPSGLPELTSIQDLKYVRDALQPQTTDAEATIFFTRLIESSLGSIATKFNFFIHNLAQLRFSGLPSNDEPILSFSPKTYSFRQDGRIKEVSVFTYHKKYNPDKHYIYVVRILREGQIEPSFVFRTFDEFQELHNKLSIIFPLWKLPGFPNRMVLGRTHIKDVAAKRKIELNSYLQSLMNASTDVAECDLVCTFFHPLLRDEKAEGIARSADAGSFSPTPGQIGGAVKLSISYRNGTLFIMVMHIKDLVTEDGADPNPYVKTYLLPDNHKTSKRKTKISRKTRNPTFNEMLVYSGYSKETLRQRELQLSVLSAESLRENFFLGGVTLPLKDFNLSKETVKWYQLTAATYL", "in_short": "as §1"}, "[3]": {"target": "T11, NDR1 (STK38, IPI00027251) (Homo sapiens, UniProt Q15208)", "T11 construct": "endogenous in cells; host or cells: HeLa S3 cell lysate", "T11 sequence (Q15208 whole entry)": "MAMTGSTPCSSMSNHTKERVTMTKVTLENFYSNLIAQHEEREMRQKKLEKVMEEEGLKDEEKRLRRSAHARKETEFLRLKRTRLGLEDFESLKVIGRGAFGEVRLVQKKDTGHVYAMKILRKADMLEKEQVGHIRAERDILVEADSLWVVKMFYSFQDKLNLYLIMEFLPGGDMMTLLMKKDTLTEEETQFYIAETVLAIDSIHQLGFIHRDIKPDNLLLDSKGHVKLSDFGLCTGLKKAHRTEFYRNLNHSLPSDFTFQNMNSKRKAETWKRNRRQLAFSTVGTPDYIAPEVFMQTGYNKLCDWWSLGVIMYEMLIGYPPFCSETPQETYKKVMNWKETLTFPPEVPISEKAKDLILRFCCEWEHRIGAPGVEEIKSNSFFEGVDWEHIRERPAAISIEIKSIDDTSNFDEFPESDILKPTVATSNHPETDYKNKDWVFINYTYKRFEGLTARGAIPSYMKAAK", "in_short": "as §1"}, "[4]": {"conditions": "control beads vs first incubation"}}, "data": [{"smiles": "CC(C)n1c(=O)ccc2cnc(Nc3ccc(OCCN)cc3)nc21", "note": "[V16742]", "values": [{"measurement": "r (5 h/2.5 h INC. TIME)", "setting": "CDK6 (IPI00023529); 5 h vs 2.5 h incubation time", "result": 0.75}, {"measurement": "rAVERAGE (CTRL/1 INC)", "setting": "CDK6 (IPI00023529); [4]", "result": 0.10}, {"measurement": "Ki", "setting": "CDK6 (IPI00023529); immobilized VI16742", "result": 119, "unit": "µM"}, {"measurement": "rAVERAGE (2 INC/1 INC)", "setting": "CDK6 (IPI00023529); second vs first incubation", "result": 0.70}, {"measurement": "rAVERAGE (CTRL/1 INC)", "setting": "DAPK2 (IPI00033388); [4]", "result": 0.11}, {"measurement": "Ki", "setting": "DAPK2 (IPI00033388); immobilized VI16742", "result": 171, "unit": "µM"}, {"measurement": "rAVERAGE (2 INC/1 INC)", "setting": "DAPK2 (IPI00033388); second vs first incubation", "result": 0.77}, {"measurement": "r (3 MG/1 MG LYSATE)", "setting": "RPSA (IPI00413108); 3 mg vs 1 mg lysate", "result": 3.92}, {"measurement": "r (5 h/2.5 h INC. TIME)", "setting": "RPSA (IPI00413108); 5 h vs 2.5 h incubation time", "result": 2.26}, {"measurement": "rAVERAGE (CTRL/1 INC)", "setting": "RPSA (IPI00413108); [4]", "result": 0.11}, {"measurement": "Ki", "setting": "RPSA (IPI00413108); immobilized VI16742", "result": 185, "unit": "µM"}, {"measurement": "rAVERAGE (2 INC/1 INC)", "setting": "RPSA (IPI00413108); second vs first incubation", "result": 0.78}, {"measurement": "r (3 MG/1 MG LYSATE)", "setting": "APRT (IPI00218693); 3 mg vs 1 mg lysate", "result": 1.04}, {"measurement": "r (5 h/2.5 h INC. TIME)", "setting": "APRT (IPI00218693); 5 h vs 2.5 h incubation time", "result": 1.40}, {"measurement": "rAVERAGE (CTRL/1 INC)", "setting": "APRT (IPI00218693); [4]", "result": 0.05}, {"measurement": "Ki", "setting": "APRT (IPI00218693); immobilized VI16742", "result": 223, "unit": "µM"}, {"measurement": "rAVERAGE (2 INC/1 INC)", "setting": "APRT (IPI00218693); second vs first incubation", "result": 0.81}, {"measurement": "r (3 MG/1 MG LYSATE)", "setting": "SLK (IPI00022827); 3 mg vs 1 mg lysate", "result": 3.22}, {"measurement": "r (5 h/2.5 h INC. TIME)", "setting": "SLK (IPI00022827); 5 h vs 2.5 h incubation time", "result": 1.87}, {"measurement": "rAVERAGE (CTRL/1 INC)", "setting": "SLK (IPI00022827); [4]", "result": 0.05}, {"measurement": "Ki", "setting": "SLK (IPI00022827); immobilized VI16742", "result": 217, "unit": "µM"}, {"measurement": "rAVERAGE (2 INC/1 INC)", "setting": "SLK (IPI00022827); second vs first incubation", "result": 0.81}, {"measurement": "rAVERAGE (CTRL/1 INC)", "setting": "MAP2K4 (IPI00789335); [4]", "result": 0.06}, {"measurement": "Ki", "setting": "MAP2K4 (IPI00789335); immobilized VI16742", "result": 127, "unit": "µM"}, {"measurement": "rAVERAGE (2 INC/1 INC)", "setting": "MAP2K4 (IPI00789335); second vs first incubation", "result": 0.71}, {"measurement": "rAVERAGE (CTRL/1 INC)", "setting": "[1]; [4]", "result": 0.06}, {"measurement": "Ki", "setting": "[1]; immobilized VI16742", "result": 201, "unit": "µM"}, {"measurement": "rAVERAGE (2 INC/1 INC)", "setting": "[1]; second vs first incubation", "result": 0.79}, {"measurement": "r (3 MG/1 MG LYSATE)", "setting": "XTP3TPA (IPI00012197); 3 mg vs 1 mg lysate", "result": 3.39}, {"measurement": "r (5 h/2.5 h INC. TIME)", "setting": "XTP3TPA (IPI00012197); 5 h vs 2.5 h incubation time", "result": 1.04}, {"measurement": "rAVERAGE (CTRL/1 INC)", "setting": "XTP3TPA (IPI00012197); [4]", "result": 0.08}, {"measurement": "Ki", "setting": "XTP3TPA (IPI00012197); immobilized VI16742", "result": 159, "unit": "µM"}, {"measurement": "rAVERAGE (2 INC/1 INC)", "setting": "XTP3TPA (IPI00012197); second vs first incubation", "result": 0.75}, {"measurement": "rAVERAGE (CTRL/1 INC)", "setting": "[2]; [4]", "result": 0.01}, {"measurement": "Ki", "setting": "[2]; immobilized VI16742", "result": 390, "unit": "µM"}, {"measurement": "rAVERAGE (2 INC/1 INC)", "setting": "[2]; second vs first incubation", "result": 0.88}, {"measurement": "rAVERAGE (CTRL/1 INC)", "setting": "PIK3C2A (IPI00002580); [4]", "result": 0.18}, {"measurement": "Ki", "setting": "PIK3C2A (IPI00002580); immobilized VI16742", "result": 104, "unit": "µM"}, {"measurement": "rAVERAGE (2 INC/1 INC)", "setting": "PIK3C2A (IPI00002580); second vs first incubation", "result": 0.67}, {"measurement": "rAVERAGE (CTRL/1 INC)", "setting": "[3]; [4]", "result": 0.01}, {"measurement": "Ki", "setting": "[3]; immobilized VI16742", "result": 78.3, "unit": "µM"}, {"measurement": "rAVERAGE (2 INC/1 INC)", "setting": "[3]; second vs first incubation", "result": 0.60}]}]}
